Assay: mn = molality of the nth substance listed, in mol/kg
Settings: Liquid, Vibrating tube method

[Cl-].[Cl-].[Zn+2] [zinc chloride] + CO
Settings	mass density [kg/m3]
348.27 K, 19998 kPa, m1 = 0.1348	775.25
348.27 K, 20001 kPa, m1 = 5.367	1160.36
348.27 K, 20003 kPa, m1 = 1.039	851.34
348.27 K, 24987 kPa, m1 = 1.977	930.28
348.27 K, 24989 kPa, m1 = 0.8018	837.48
348.27 K, 24994 kPa, m1 = 0.1348	780.25
348.27 K, 24994 kPa, m1 = 1.039	856.19
348.27 K, 24996 kPa, m1 = 0.4768	810.44
348.27 K, 25001 kPa, m1 = 5.367	1164.74
348.27 K, 29985 kPa, m1 = 0.4768	815.14
348.27 K, 29987 kPa, m1 = 0.8018	842.17
348.27 K, 29990 kPa, m1 = 1.977	934.86
348.27 K, 29998 kPa, m1 = 0.1348	785.01
348.27 K, 30011 kPa, m1 = 5.367	1169.01
348.27 K, 30014 kPa, m1 = 1.039	860.81
348.27 K, 34985 kPa, m1 = 1.977	939.27
348.27 K, 34987 kPa, m1 = 0.4768	819.64
348.27 K, 34988 kPa, m1 = 0.8018	846.66
348.27 K, 34990 kPa, m1 = 1.039	865.23
348.27 K, 34990 kPa, m1 = 5.367	1173.15
348.27 K, 34998 kPa, m1 = 0.1348	789.52
348.27 K, 39984 kPa, m1 = 5.367	1177.19
348.27 K, 39991 kPa, m1 = 1.039	869.48
348.27 K, 39993 kPa, m1 = 1.977	943.53
348.27 K, 39998 kPa, m1 = 0.1348	793.81
348.27 K, 39999 kPa, m1 = 0.8018	850.97
348.27 K, 40007 kPa, m1 = 0.4768	823.94
373.3 K, 523 kPa, m1 = 0.8018	783.25
373.3 K, 527 kPa, m1 = 0.4768	755.9
373.3 K, 527 kPa, m1 = 1.977	876.84
373.3 K, 533 kPa, m1 = 0.1348	725.48
373.3 K, 535 kPa, m1 = 5.367	1112.11
373.3 K, 536 kPa, m1 = 1.039	802.51
373.3 K, 4986 kPa, m1 = 5.367	1117.02
373.3 K, 4988 kPa, m1 = 1.039	808.88
373.3 K, 4990 kPa, m1 = 0.4768	762.64
373.3 K, 4994 kPa, m1 = 0.8018	789.83
373.3 K, 4995 kPa, m1 = 0.1348	732.41
373.3 K, 5003 kPa, m1 = 1.977	882.85
373.3 K, 9984 kPa, m1 = 0.4768	769.58
373.3 K, 9984 kPa, m1 = 0.8018	796.61
373.3 K, 9985 kPa, m1 = 0.1348	739.51
373.3 K, 9986 kPa, m1 = 1.977	889.12
373.3 K, 9995 kPa, m1 = 1.039	815.55
373.3 K, 10002 kPa, m1 = 5.367	1122.33
373.3 K, 14985 kPa, m1 = 0.4768	776
373.3 K, 14990 kPa, m1 = 5.367	1127.43
373.3 K, 15001 kPa, m1 = 0.1348	746.08
373.3 K, 15005 kPa, m1 = 0.8018	802.94
373.3 K, 15009 kPa, m1 = 1.039	821.76
373.3 K, 15009 kPa, m1 = 1.977	895.06
373.3 K, 19986 kPa, m1 = 0.1348	752.14
373.3 K, 19987 kPa, m1 = 0.4768	781.98
373.3 K, 20001 kPa, m1 = 1.039	827.53
373.3 K, 20005 kPa, m1 = 0.8018	808.85
373.3 K, 20008 kPa, m1 = 5.367	1132.37
373.3 K, 20012 kPa, m1 = 1.977	900.64
373.3 K, 24985 kPa, m1 = 0.4768	787.59
373.3 K, 24989 kPa, m1 = 1.039	832.97
373.3 K, 24990 kPa, m1 = 0.8018	814.38
373.3 K, 24992 kPa, m1 = 0.1348	757.83
373.3 K, 25001 kPa, m1 = 1.977	905.94
373.3 K, 25001 kPa, m1 = 5.367	1137.12
373.3 K, 29985 kPa, m1 = 0.1348	763.18
373.3 K, 29988 kPa, m1 = 1.977	910.98
373.3 K, 29993 kPa, m1 = 1.039	838.14
373.3 K, 29994 kPa, m1 = 5.367	1141.72
373.3 K, 29997 kPa, m1 = 0.8018	819.65
373.3 K, 30012 kPa, m1 = 0.4768	792.89
373.3 K, 34983 kPa, m1 = 0.8018	824.61
373.3 K, 34984 kPa, m1 = 1.039	843.03
373.3 K, 34986 kPa, m1 = 5.367	1146.17
373.3 K, 34987 kPa, m1 = 0.4768	797.89
373.3 K, 34997 kPa, m1 = 1.977	915.82
373.3 K, 35008 kPa, m1 = 0.1348	768.23
373.3 K, 39990 kPa, m1 = 1.039	847.71
373.3 K, 39991 kPa, m1 = 0.8018	829.37
373.3 K, 39993 kPa, m1 = 0.1348	773.04
373.3 K, 39995 kPa, m1 = 5.367	1150.53
373.3 K, 39997 kPa, m1 = 1.977	920.45
373.3 K, 40000 kPa, m1 = 0.4768	802.68
398.33 K, 893 kPa, m1 = 0.1348	695.88
398.33 K, 899 kPa, m1 = 5.367	1083.75
398.33 K, 904 kPa, m1 = 1.039	773.5
398.33 K, 905 kPa, m1 = 1.977	848.36
398.33 K, 907 kPa, m1 = 0.8018	754.11
398.33 K, 908 kPa, m1 = 0.4768	726.55
398.33 K, 4981 kPa, m1 = 0.4768	734.09
398.33 K, 4985 kPa, m1 = 1.977	854.8
398.33 K, 4988 kPa, m1 = 0.8018	761.4
398.33 K, 4994 kPa, m1 = 0.1348	703.77
398.33 K, 5002 kPa, m1 = 5.367	1088.78
398.33 K, 5004 kPa, m1 = 1.039	780.59
398.33 K, 9983 kPa, m1 = 0.4768	742.44
398.33 K, 9984 kPa, m1 = 0.1348	712.39
398.33 K, 9984 kPa, m1 = 0.8018	769.52
398.33 K, 9988 kPa, m1 = 5.367	1094.64
398.33 K, 9993 kPa, m1 = 1.039	788.48
398.33 K, 9999 kPa, m1 = 1.977	862.15
398.33 K, 14985 kPa, m1 = 1.039	795.7
398.33 K, 14988 kPa, m1 = 0.1348	720.18
398.33 K, 14993 kPa, m1 = 0.4768	750.05
398.33 K, 14994 kPa, m1 = 0.8018	776.95
398.33 K, 15018 kPa, m1 = 5.367	1100.25
398.33 K, 15019 kPa, m1 = 1.977	868.94
398.33 K, 19982 kPa, m1 = 0.8018	783.77
398.33 K, 19982 kPa, m1 = 1.039	802.38
398.33 K, 19984 kPa, m1 = 0.1348	727.3
398.33 K, 19994 kPa, m1 = 0.4768	757.02
398.33 K, 19996 kPa, m1 = 1.977	875.28
398.33 K, 20003 kPa, m1 = 5.367	1105.62
398.33 K, 24984 kPa, m1 = 1.039	808.61
398.33 K, 24989 kPa, m1 = 5.367	1110.77
398.33 K, 24992 kPa, m1 = 0.4768	763.47
398.33 K, 25003 kPa, m1 = 0.1348	733.89
398.33 K, 25006 kPa, m1 = 0.8018	790.16
398.33 K, 25009 kPa, m1 = 1.977	881.23
398.33 K, 29990 kPa, m1 = 1.977	886.89
398.33 K, 29994 kPa, m1 = 0.8018	796.1
398.33 K, 29996 kPa, m1 = 0.1348	740.01
398.33 K, 29996 kPa, m1 = 1.039	814.47
398.33 K, 29999 kPa, m1 = 5.367	1115.75
398.33 K, 30005 kPa, m1 = 0.4768	769.51
398.33 K, 34992 kPa, m1 = 0.4768	775.14
398.33 K, 34993 kPa, m1 = 0.1348	745.75
398.33 K, 35003 kPa, m1 = 5.367	1120.56
398.33 K, 35010 kPa, m1 = 1.039	819.97
398.33 K, 35011 kPa, m1 = 0.8018	801.72
398.33 K, 35014 kPa, m1 = 1.977	892.27
398.33 K, 39988 kPa, m1 = 1.977	897.37
398.33 K, 39989 kPa, m1 = 0.1348	751.12
398.33 K, 39992 kPa, m1 = 0.8018	807.01
398.33 K, 39994 kPa, m1 = 5.367	1125.22
398.33 K, 39997 kPa, m1 = 1.039	825.19
398.33 K, 40002 kPa, m1 = 0.4768	780.53

— the NIST ThermoML archive (doi:10.1021/je050509f)
